The results in this text go back to patent US20090264420A1, “ORGANIC COMPOUNDS” (priority 2006, published 2009).

pIC50: −log10 of the molar value.

In one experiment the target is T1, aldosterone synthase (Homo sapiens, UniProt P19099).
T1 construct: host or cells: NCI-H295R
T1 sequence (P19099 25-503): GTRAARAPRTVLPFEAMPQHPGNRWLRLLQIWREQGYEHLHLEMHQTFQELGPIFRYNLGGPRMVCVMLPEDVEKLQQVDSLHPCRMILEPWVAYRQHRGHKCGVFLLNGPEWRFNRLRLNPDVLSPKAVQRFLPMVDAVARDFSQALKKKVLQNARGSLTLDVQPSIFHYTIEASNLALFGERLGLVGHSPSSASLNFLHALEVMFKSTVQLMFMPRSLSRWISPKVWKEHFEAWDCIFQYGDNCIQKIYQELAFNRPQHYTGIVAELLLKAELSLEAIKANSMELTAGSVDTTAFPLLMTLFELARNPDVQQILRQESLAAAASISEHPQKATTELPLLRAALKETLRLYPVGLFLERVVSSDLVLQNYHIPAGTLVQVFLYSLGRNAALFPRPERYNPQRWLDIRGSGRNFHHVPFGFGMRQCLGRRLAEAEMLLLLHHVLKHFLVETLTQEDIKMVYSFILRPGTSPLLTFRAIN
Nature of the experiment: Aldosterone production in Ang II-stimulated NCI-H295R cells (aldosterone synthase inhibition). Format: cell-based. The conditions noted are these: AS: aldosterone synthase. The text has this: (§1) Human adrenocortical carcinoma NCI-H295R cell line is obtained from American Type Culture Collection (Manassas, Va.). Insulin/transferrin/selenium (ITS)-A supplement (100×), DMEM/F-12, antibiotic/antimycotic (100×), and fetal calf serum (FCS) are purchased from Gibco (Grand Island, N.Y.). Anti-mouse PVT scintillation proximity assay (SPA) beads and NBS 96-well plates are obtained from Amersham (Piscataway, N.J.) and Corning (Acton, Mass.), respectively. Solid black 96-well flat bottom plates are purchased from Costar (Corning, N.Y.). Aldosterone and angiotensin (Ang II) are purchased from Sigma (St. Louis, Mo.). D-[1,2,6,7^−3H(N)]aldosterone was acquired from PerkinElmer (Boston, Mass.). Nu-serum was a product of BD Biosciences (Franklin Lakes, N.J.). The NADPH regenerating system, dibenzylfluorescein (DBF), and human aromatase Supersomes® are obtained from Gentest (Woburn, Mass.).
For in vitro measurement of aldosterone activity, human adrenocortical carcinoma NCI-H295R cells are seeded in NBS 96-well plates at a density of 25,000 cells/well in 100 μl′ of a growth medium containing DMEM/F12 supplemented with 10% FCS, 2.5% Nu-serum, 1 μg ITS/ml, and 1× antibiotic/antimycotic. The medium is changed after culturing for 3 days at 37° C. under an atmosphere of 5% CO2/95% air. On the following day, cells are rinsed with 100 μl of DMEM/F12 and incubated with 100 μl of treatment medium containing 1 μM Ang II and a compound at different concentrations in quadruplicate wells at 37° C. for 24 hr. At the end of incubation, 50 μl of medium is withdrawn from each well for measurement of aldosterone production by an RIA using mouse anti-aldosterone monoclonal antibodies.
Measurement of aldosterone activity can also be performed using, a 96-well plate format. Each test sample is incubated with 0.02 μCi of D-[1,2,6,7-^3H(N)]aldosterone and 0.3 μg of anti-aldosterone antibody in phosphate-buffered saline (PBS) containing 0.1% Triton X-100, 0.1% bovine serum albumin, and 12% glycerol in a total volume of 200 μl at room temperature for 1 hr. Anti-mouse PVT SPA beads (50 μl) are then added to each well and incubated overnight at room temperature prior to counting in a Microbeta plate counter. The amount of aldosterone in each sample is calculated by comparing with a standard curve generated using known quantities of the hormone.
(§2) Full concentration-response curves of the test compound are performed at least 3 times. The IC50 values are derived using a non-linear least squares curve-fitting program from Microsoft XLfit.

For a further experiment, the target named is T2, human aromatase (Homo sapiens, UniProt P11511).
T2 construct: purchased Gentest (Woburn, Mass.)
T2 sequence (P11511 1-503): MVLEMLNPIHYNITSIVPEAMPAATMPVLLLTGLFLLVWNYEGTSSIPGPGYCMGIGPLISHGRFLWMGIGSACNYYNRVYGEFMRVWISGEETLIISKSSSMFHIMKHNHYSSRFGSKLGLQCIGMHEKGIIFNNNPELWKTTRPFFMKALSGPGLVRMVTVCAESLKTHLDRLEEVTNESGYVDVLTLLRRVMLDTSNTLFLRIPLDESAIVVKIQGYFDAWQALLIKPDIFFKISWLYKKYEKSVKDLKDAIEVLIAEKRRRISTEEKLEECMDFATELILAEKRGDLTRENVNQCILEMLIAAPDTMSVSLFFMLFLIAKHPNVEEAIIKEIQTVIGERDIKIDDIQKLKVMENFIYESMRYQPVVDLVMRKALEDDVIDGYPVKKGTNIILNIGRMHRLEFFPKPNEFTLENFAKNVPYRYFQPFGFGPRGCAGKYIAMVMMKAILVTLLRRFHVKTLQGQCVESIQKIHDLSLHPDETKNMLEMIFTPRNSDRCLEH
Description: Human aromatase assay with dibenzylfluorescein substrate (fluorescence). Format: biochemical. The conditions noted are these: 1.5 h; percentage of inhibitory rate at 10 μM; ARO: Aromatase; read-out: ARO % I @ 10 μM.
Source text: as §1
To measure aromatase activity, the human aromatase assay is performed in 96-well flat bottom plates according to a published protocol (Stresser et al, 2000) with minor modifications. Briefly, 10 μl, of an NADPH regenerating system containing 2.6 mM NADP^+, 6.6 mM glucose 6-phosphate, 6.6 mM MgCl2, and 0.8 U/ml glucose-6-phosphate dehydrogenase in 50 mM potassium phosphate, pH 7.4, is pre-incubated with the test compound at a desired concentration at 30° C. for 10 min in a total volume of 100 μl. Afterwards, 4 pmol of human aromatase, 20 μg of control microsomal protein, and 4 μM DBF in 100 μl of 50 mM potassium phosphate, pH 7.4, is added to each well and incubated at 30° C. for 90 min. The reaction is terminated by the addition of 75 μl of 2 N NaOH to each well. After 2 hr, the product, fluorescein, is measured by a fluorimeter using excitation and emission wavelengths of 485 and 538 nm, respectively.
as §2

The target in a further experiment is T3, CYP11B1 (Homo sapiens, UniProt P15538).
T3 construct: Thus, the NCI-H295R cells have Cyp 11 B1 (steroid 11 p-hydroxylase); host or cells: NCI-H295R
T3 sequence (P15538 25-503): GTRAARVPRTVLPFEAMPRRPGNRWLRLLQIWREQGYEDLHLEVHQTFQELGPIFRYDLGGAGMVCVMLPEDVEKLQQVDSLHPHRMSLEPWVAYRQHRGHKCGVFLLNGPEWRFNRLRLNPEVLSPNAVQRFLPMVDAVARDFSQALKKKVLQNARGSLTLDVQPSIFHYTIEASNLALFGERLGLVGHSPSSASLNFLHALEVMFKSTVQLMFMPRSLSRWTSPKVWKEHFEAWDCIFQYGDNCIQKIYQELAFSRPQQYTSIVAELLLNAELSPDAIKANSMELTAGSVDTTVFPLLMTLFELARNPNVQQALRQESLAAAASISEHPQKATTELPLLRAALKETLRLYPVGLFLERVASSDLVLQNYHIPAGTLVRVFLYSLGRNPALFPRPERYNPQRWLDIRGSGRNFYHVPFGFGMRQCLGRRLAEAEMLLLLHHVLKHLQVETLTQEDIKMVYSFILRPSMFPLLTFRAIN
Description: CYP11B1 inhibition in NCI-H295R cells (steroid release by radioimmunoassay). Format: cell-based. The conditions noted are these: percentage of inhibitory rate at 100 nM; 11B1: CYP11B1. From the text: The in vitro inhibitory activities for CYP 11 B1 can be determined by the following assay.
The cell line NCI-H295R was originally isolated from an adrenocortical carcinoma and has been characterized in the literature through the stimulable secretion of steroid hormones and the presence of the enymes essential for steroidogenesis. Thus, the NCI-H295R cells have Cyp 11 B1 (steroid 11 p-hydroxylase). The cells show the physiological property of zonally undifferentiated human foetal adrenocortical cells which, however, have the capacity to produce the steroid hormones which are formed in the three, phenotypically distinguishable zones in the adult adrenal, cortex.
The NCI-H295R cells (American Type Culture Collection, ATCC, Rockville, Md., USA) are grown in Dulbeoco's Modified Eagle Ham F-12 Medium (DME/F12), which has been I supplemented with Ulroser SF Serum (Soprachem, Cergy-Saint-Christophe, France), insulin, transferrin, selenite (1-T-S, Becton Dickinson Biosiences, Franklin lakes, NJ, USA) and antibiotics in 75 cm^2 cell culture vessels at 37° C. and in a 95% air-5% carbon dioxide atmosphere. The cells are subsequently transferred for colony formation into a 24-well incubation vessel. They are cultivated there in DME/F12 medium, which is now supplemented with 0.1% bovine serum instead of Ultroser SF for 24 hours. The experiment is initiated by cultivating the cells in DME/F12 medium which is supplemented with 0.1% bovine serum albumin and test compound, in the presence or absence of cell stimulants, for 72 hours. The test substance is added in a concentration range from 0.2 nanomolar to […]. […]
The excretion of aldosterone, cortisol, corticosterone and estradiol/estrone into the culture medium can be detected and quantified by commercially available; specific monoclonal antibodies in radioimmunoassays in accordance with the manufacturer's instructions.
Inhibition of the release of certain steroids can be used as a measure of the respective enzyme inhibition by the added test compounds. The dose-dependent inhibition of enzymic activity by a compound is calculated by means of an inhibition plot which is characterized by an IC50.
The IC50 values for active test compounds are ascertained by a simple linear regression analysis in order to construct inhibition plots without data weighting. The inhibition plot is calculated by fting a 4-parameter logistic function to the raw data points using the least squares method. The equation of the 4-parameter logistic function is calculated as follows: Y=(d−a)/((1+(x/c)b))+aI where: a=minimum data level b gradient I c=ICED d=maximum data level x=inhibitor concentration.

`CC(C)C1C(=O)N(CC2CCCCC2)Cc2cncn21` (single isomer, unassigned) [Compound 3, 7-Cyclohexylmethyl-5-isopropyl-7,8-dihydro-imidazo[5-a]pyrazin-6-one] gave a pIC50 against aldosterone synthase of 7.96. Also, the inhibition at 10 µM at human aromatase was determined as 48%.
Regarding `O=C1C(C2CCC2)n2cncc2CCN1Cc1ccc(F)cc1` (single isomer, unassigned) [Compound 11, 4-Cyclobutyl-6-(4-fluoro-benzyl)-7,8-dihydro-6H-2,3a,6-triaza-azulen-5-one], the pIC50 on aldosterone synthase is 6.71. Also, at human aromatase, the inhibition at 10 µM is 99%.
The corresponding values for `CC(C)C1C(=O)N(Cc2cccc(F)c2)Cc2cncn21` (single isomer, unassigned) [Compound 9, 7-(3-Fluoro-benzyl)-5-isopropyl-7,8-dihydro-imidazo[1,5-a]pyrazin-6-one] are 6.64 and 94%.
Turning to `CCC1(C(C)(C)C)C(=O)N(Cc2ccc(F)cc2)Cc2cncn21` (single isomer, unassigned) [Compound 1, 5-tert-Butyl-5-ethyl-7-(4-fluoro-benzyl)-7,8-dihydro-imidazo[1,5-a]pyrazin-6-one], the pIC50 against aldosterone synthase was 6.86. The inhibition at 10 µM on human aromatase is 18%.
Take `CCC(C)(C)C1C(=O)N(CC2CCOCC2)Cc2cncn21` (single isomer, unassigned) [Compound 10, 5-(1,1-Dimethyl-propyl)-7-(tetrahydro-pyran-4-ylmethyl)-7,8-dihydro-imidazo[5-a]pyrazin-6-one]: the pIC50 against aldosterone synthase is 6.72.
`CCC(C)(C)C1C(=O)N(CC2CCCCC2)Cc2cncn21` (single isomer, unassigned) [Compound 7, 7-Cyclohexylmethyl-5 (1,1-dimethyl-propyl)-7,8-dihydro-imidazo[1,5-a]pyrazin-6-one] had a pIC50 against aldosterone synthase of 8.15. In addition, the inhibition at 10 µM at human aromatase is 50%.
`O=C1N(Cc2ccc(F)cc2)Cc2cncn2C12CCCCC2` [Compound 4, 7′-(4-fluorobenzyl)-7′,8′-dihydro-6′H-spiro[cyclohexane-1,5′-imidazole[1,5-a]pyrazin]-6-one]: on aldosterone synthase, the pIC50 is 7.14. Moreover, on CYP11B1, the “11B1 % I @ 100 nM” value was found to be 99%.
As for `O=C1C(C2CCC2)n2cncc2CN1Cc1ccc(F)cc1` (single isomer, unassigned) [Compound 5, 5-Cyclobutyl-7-(4-fluoro-benzyl)-7,8-dihydro-imidazo[1,5-a]pyrazin-6-one], the pIC50 at aldosterone synthase is 7.74. Moreover, at human aromatase, the inhibition at 10 µM came to 93%.

As a reminder, the pIC50 is the IC50 on a negative log10 scale, so that one unit is a factor of ten.
